# Test results: patent publication US6340704B1, “Cell differentiation inducing amide derivatives, their production and use” (Takeda Chemical Industries, Ltd., priority 1997, dated 2002)
# Where a name gives a salt, the structure may show the parent alone. Marks after values point to notes of the source that are not given here.
# Columns and labels:
# [1] = test system: Mouse-derived MC3T3-E1 osteoblast cells; test: Induction of alkaline phosphatase (ALP) production in mouse osteoblastic cells, with or without 3 ng/ml BMP-4/7 heterodimer; assay type: cell-based; details: 72 hours; for ALP Activity (1000 × A405 ± SD) BMP Addition: medium with 3 ng/ml BMP-4/7 heterodimer; for ALP Activity (1000 × A405 ± SD) BMP Non-Addition: no BMP
# Description: Induction of Alkaline Phosphatase (ALP) Production in Mouse Osteoblastic Cells
# Mouse-derived MC3T3-E1 osteoblast cells were seeded in a 96-well microtiter plate of α-minimum essential medium containing FCS (fetal calf serum) (8000 cells/well). After two days when the growth had become confluent, the test substance diluted to various concentrations in Table 1 with the medium either containing or not containing 3 ng/ml of BMP-4/7 heterodimer (described in Japanese Patent Application No. 111255/1994) was added, and the microtiter plate was further incubated for 72 hours. The plate was washed once with a physiological saline solution, followed by addition of a substrate solution. The resulting mixture was incubated at room temperature for 15 minutes, followed by addition of 0.05N NaOH to terminate the reaction. The absorbance at 405 nm was measured.
Compound,melting point [°C],ALP Activity (1000 × A405 ± SD) BMP Addition ([1]; compound 0.01 μM),ALP Activity (1000 × A405 ± SD) BMP Non-Addition ([1]; compound 0.01 μM),ALP Activity (1000 × A405 ± SD) BMP Addition ([1]; compound 0.1 μM),ALP Activity (1000 × A405 ± SD) BMP Non-Addition ([1]; compound 0.1 μM),ALP Activity (1000 × A405 ± SD) BMP Addition ([1]; compound 1 μM),ALP Activity (1000 × A405 ± SD) BMP Non-Addition ([1]; compound 1 μM)
"O=C(c1cc(-c2ccc(F)cc2)c2c3c(ccc2n1)OCO3)N1CCN(Cc2ccccc2)CC1 [Example 48, N-Benzyl-N-[9-(4-fluorophenyl)-1,3-dioxolo[4,5-f]quinoline-7-carbonyl]piperazine]",147 to 148,–,–,–,–,–,–
"CNC(=O)c1cc2cc3c(cc2c(-c2ccc4c(c2)OCO4)c1CO)OCO3 [Example 7, N-Methyl-(1,3-benzodioxole-5-yl)-7-hydroxymethyl-naphto[2,3-d]-1,3-dioxole-6-carboxamide]",222 to 224,–,–,–,–,–,–
"CNC(=O)c1cc2ccc3c(c2c(-c2ccc4ccccc4c2)c1CO)OCO3 [Example 4, N-Methyl-9-(2-naphthyl)-8-hydroxymethyl-naphtho[1,2-d]-1,3-dioxole-7-carboxamide]",207 to 210,301 ± 8 1000 × A405,86 ± 3 1000 × A405,389 ± 25* 1000 × A405,108 ± 7* 1000 × A405,554 ± 49* 1000 × A405,168 ± 4* 1000 × A405
"NC(=O)c1nc2ccc3c(c2c(-c2ccc4c(c2)OCO4)c1CO)OCO3 [Example 8, 9(1,3-Benzodioxole-5-yl)-8hydroxymethyl-1,3-dioxolo[4,5-f]quinoline-7-carboxamide]",–,426 ± 28 1000 × A405,105 ± 22 1000 × A405,477 ± 15* 1000 × A405,134 ± 12 1000 × A405,570 ± 63* 1000 × A405,186 ± 26 1000 × A405
"CN(C)C(=O)c1cc(-c2ccc3c(c2)OCO3)c2c3c(ccc2c1)OCO3 [Example 16, N,N-Dimethyl-9-(1,3,-benzodioxole-5-yl)-naphtho[1,2-d]-1,3,-dioxole-7-carboxamide]",160 to 161,–,–,–,–,–,–
"Cc1c(C(N)=O)cc(-c2ccc3c(c2)OCO3)c2c3c(ccc12)OCO3 [Example 13, 9-(1,3-Benzodioxole-5-yl)-6-methyl-naphto[1,2-d]-1,3-dioxole-7-carboxamide]",237 to 239,–,–,–,–,–,–
"CNC(=O)c1cc2ccc3c(c2c(-c2ccc4c(c2)OCO4)c1CO)OCO3 [Example 1, N-Methyl-9-(1,3-benzodioxole-5-yl)-8-hydroxymethylnaphtho[1,2-d]-1,3-dioxole-7-carboxamide]",233 to 235,193 ± 15 1000 × A405,50 ± 5 1000 × A405,213 ± 5* 1000 × A405,58 ± 5* 1000 × A405,386 ± 30* 1000 × A405,102 ± 5* 1000 × A405
"CNC(=O)c1cc2ccc3c(c2c(-c2ccc(Cl)cc2)c1CO)OCO3 [Example 3, N-Methyl-9-(4-chlorophenyl)-8-hydroxymethyl-naphtho[1,2-d]-1,3-dioxole-7-carboxamide]",202 to 204,–,–,–,–,–,–
"CNC(=O)c1nc2ccc3c(c2c(-c2ccc4c(c2)OCO4)c1C)OCO3 [Example 23, N-methyl-9-(1,3-benzodioxole-5yl)-8-methyl-1,3-dioxolo [4,5-f]quinoline-7-carboxamide]",141 to 146,–,–,–,–,–,–
"CN(C)CCCNC(=O)c1cc(-c2ccc3c(c2)OCO3)c2c3c(ccc2c1)OCO3 (as salt: hydrochloride) [Example 19, N-(3-Dimethylaminopropyl)-9-(1,3-benzodioxole-5-yl)-naphtho [1,2-d]-1,3-dioxole-7-carboxamide hydrochloride]",233 to 240,–,–,–,–,–,–
"NC(=O)c1cc(-c2ccc3c(c2)OCO3)c2c3c(ccc2c1)OCO3 [Example 14, 9-(1,3-Benzodioxole-5-yl)-naphtho[1,2-d]-1,3-dioxole-7-carboxamide]",267 to 269,–,–,–,–,–,–
"CNC(=O)c1cc2ccc3c(c2c(-c2ccc(F)cc2)c1CO)OCO3 [Example 5, N-Methyl-9-(4-fluorophenyl)-8-hydroxymethyl-naphtho[1,2-d]-1,3-dioxole-7-carboxamide]",210 to 213,170 ± 20 1000 × A405,49 ± 1 1000 × A405,237 ± 14* 1000 × A405,62 ± 3* 1000 × A405,431 ± 26* 1000 × A405,157 ± 11* 1000 × A405
"CNC(=O)c1cc2ccc3c(c2c(-c2ccc(OC)cc2)c1CO)OCO3 [Example 2, N-Methyl-9-(4-methoxyphenyl)-8-hydroxymethyl-naphtho[1,2-d]-1,3-dioxole-7-carboxamide]",187 to 190,323 ± 13 1000 × A405,80 ± 2 1000 × A405,354 ± 15* 1000 × A405,95 ± 7* 1000 × A405,478 ± 17* 1000 × A405,162 ± 18* 1000 × A405
"NC(=O)c1cc(-c2ccc(C(F)(F)F)cc2)c2c3c(ccc2c1)OCO3 [Example 12, 9-(4-Trifluromethylphenyl)-naphto[1,2-d]-1,3-dixole-7-carboxamide]",207 to 209,–,–,–,–,–,–
"CNC(=O)c1nc2ccc(C)cc2c(-c2ccc(F)cc2F)c1CO [Example 10, N-Methyl-[3-hydroxymethyl-6-methyl-4-(2,4-difluorophenyl)quinoline]-2-carboxamide]",140 to 141,–,–,–,–,–,–
"CNC(=O)c1nc2ccc(C)cc2c(-c2ccccc2)c1CO [Example 9, N-methyl-(3-hydroxmethyl-6-methyl-4-phenylquinoline)-2-carboxamide]",136 to 137,–,–,–,–,–,–
"COc1ccc(-c2cc(C(N)=O)cc3ccc4c(c23)OCO4)cc1 [Example 11, 9(4-Methoxyphenyl)-naphtho[1,2,-d]-1,3,-dioxole-7-carboxamide]",187 to 189,–,–,–,–,–,–
"CNC(=O)c1cc2ccc3c(c2c(-c2ccc(C)cc2)c1CO)OCO3 [Example 6, N-Methyl-9-(4-methylphenyl)-8-hydroxymethyl-naphtho[1,2-d]-1,3-dioxole-7-carboxamide]",210 to 212,177 ± 14 1000 × A405,51 ± 2 1000 × A405,248 ± 6* 1000 × A405,74 ± 1* 1000 × A405,459 ± 35* 1000 × A405,168 ± 1* 1000 × A405
"Cc1c(C(N)=O)nc2ccc3c(c2c1-c1ccc2c(c1)OCO2)OCO3 [Example 22, 9-(1,3-Benzodioxole-5-yl)-8-methyl-1,3-dioxole[4,4-f]quinoline-7-carboxamide]",–,187 ± 3 1000 × A405,135 ± 8* 1000 × A405,226 ± 6* 1000 × A405,149 ± 11* 1000 × A405,326 ± 18* 1000 × A405,190 ± 10* 1000 × A405
"CNC(=O)c1cc(-c2ccc3c(c2)OCO3)c2c3c(ccc2c1)OCO3 [Example 15, N-Methyl-9-(1,3-benzodioxole-5-yl)-naphtho;[1,2,-d]-1,3-dioxole-7-carboxamide]",206 to 208,–,–,–,–,–,–
"CNC(=O)c1cc2ccc3c(c2c(-c2ccc(OC(F)(F)F)cc2)c1CO)OCO3 [Example 24, N-Methyl-9-(4-trifluoromethoxyphenyl)-8-hydroxymethylnaphtho[1,2-d]-1,3-dioxol-7-carboxamide]",195 to 197,–,–,–,–,–,–
"CNC(=O)c1cc(-c2ccc(F)cc2)c2c3c(ccc2n1)OCO3 [Example 46, 9-(4-Fluorophenyl)-N-methyl-1,3-dioxolo[4,5-F]quinoline-7-carboxamide]",233 to 235,–,–,–,–,–,–
"NC(=O)c1cc(-c2ccc(OC(F)(F)F)cc2)c2c3c(ccc2c1)OCO3 [Example 25, 9-(4-Trifluoromethoxyphenyl)naphtho[1,2-d]-1,3-dioxol-7-carboxamide]",188 to 190,–,–,–,–,–,–
